Target: T1, His-EBNA1 (DNA binding domain of EBNA1, amino acids 459-607) (Epstein-Barr virus, UniProt P03211)
T1 construct: made in house; host or cells: E. coli
Test: Inhibition of 5'-biotin-oPL4624 binding to His-EBNA1 using Alpha Screen technology
Method in brief: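 AlphaScreen with 15 nM E. coli-expressed His-EBNA1 (aa 459-607), 0.2 nM biotinylated oPL4624 DNA and 5 μg/mL donor and acceptor beads in 25 mM Tris pH 7.2, 160 mM NaCl, 1 mM MgCl2; compound 3.2 nM–100 μM final. Read after 2 h at RT; inhibition normalised to no-EBNA1 wells, one-site dose-response fit.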

T1 sequence (P03211 459-607): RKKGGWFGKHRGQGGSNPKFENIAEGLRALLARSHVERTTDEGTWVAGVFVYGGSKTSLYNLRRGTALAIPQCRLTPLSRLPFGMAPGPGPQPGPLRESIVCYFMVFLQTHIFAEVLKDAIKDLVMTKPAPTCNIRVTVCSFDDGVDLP

Row | Compound | IC50 [µM]
1 | CS(=O)(=O)N1CC2CN(Cc3ccc(C#Cc4cccc(C(=O)O)c4-c4ccc5cc[nH]c5c4)cc3)CC2C1 (centres unmarked) [Entry 189] | 10 to 100
2 | O=C(O)c1cccc(C#Cc2ccc(CN3CCN(S(=O)(=O)C4CC4)CC3)cc2)c1-c1ccc2cc[nH]c2c1 [Entry 190] | 10 to 100
3 | CC(C)S(=O)(=O)N1CCN(Cc2ccc(C#Cc3cccc(C(=O)O)c3-c3ccc4cc[nH]c4c3)cc2)CC1 [Entry 191] | 1 to 10
4 | CS(=O)(=O)N1CCC2(CC1)CN(Cc1ccc(C#Cc3cccc(C(=O)O)c3-c3ccc4cc[nH]c4c3)cc1)C2 [Entry 192] | 10 to 100
5 | O=C(O)c1cccc(C#Cc2ccc(OC3CCOCC3)cc2)c1-c1ccc2[nH]ccc2c1 [Entry 193] | 1 to 10
6 | CN(C)S(=O)(=O)NC(=O)c1cccc(C#Cc2ccc(COC3CCOCC3)cc2)c1-c1ccc2cc[nH]c2c1 [Entry 194] | 1 to 10
7 | CS(=O)(=O)NC(=O)c1cccc(C#Cc2ccc(COC3CCOCC3)cc2)c1-c1ccc2cc[nH]c2c1 [Entry 195] | 10 to 100
8 | C(#Cc1cccc(-c2nnn[nH]2)c1-c1ccc2cc[nH]c2c1)c1ccc(COC2CCOCC2)cc1 [Entry 196] | 1 to 10
9 | O=C(NCc1ccc(C#Cc2cccc(C(=O)O)c2-c2ccc3cc[nH]c3c2)cc1)c1ccccc1 [Entry 197] | 1 to 10
10 | O=C1CCC(C(=O)NCc2ccc(C#Cc3cccc(C(=O)O)c3-c3ccc4cc[nH]c4c3)cc2)CC1 [Entry 198] | < 1
11 | O=C1CCC(NC(=O)c2ccc(C#Cc3cccc(C(=O)O)c3-c3ccc4cc[nH]c4c3)cc2)CC1 [Entry 199] | < 1
12 | Nc1nc2c(s1)C[C@@H](NC(=O)c1ccc(C#Cc3cccc(C(=O)O)c3-c3ccc4cc[nH]c4c3)cc1)CC2 [Entry 200] | 1 to 10
13 | Nc1nc2c(s1)C[C@H](NC(=O)c1ccc(C#Cc3cccc(C(=O)O)c3-c3ccc4cc[nH]c4c3)cc1)CC2 [Entry 201] | 1 to 10
14 | CN1CCN(C(=O)c2ccc(C#Cc3cccc(C(=O)O)c3-c3ccc4cc[nH]c4c3)cc2)CC1 [Entry 202] | 10 to 100
15 | COC1CCN(C(=O)c2ccc(C#Cc3cccc(C(=O)O)c3-c3ccc4cc[nH]c4c3)cc2)CC1 [Entry 203] | 1 to 10
16 | CS(=O)(=O)N1CCN(Cc2ccc(C#Cc3cccc(C(=O)O)c3-c3ccc4cn[nH]c4c3)cc2)CC1 [Entry 204] | 10 to 100
17 | NS(=O)(=O)N1CCN(Cc2ccc(C#Cc3cccc(C(=O)O)c3-c3ccc4cc[nH]c4c3)cc2)CC1 [Entry 205] | 1 to 10
